Test results as given in publication PMC8068361, “Design and Synthesis of a Novel PLK1 Inhibitor Scaffold Using a Hybridized 3D-QSAR Model” (International Journal of Molecular Sciences, 2021).
Read-outs that look alike come from different tables or passages of the source.

Key:
PLK1(h) = molecular target: T1, PLK1(h) (Homo sapiens, UniProt P53350); test: PLK1 kinase IC50, Reaction Biology IC50 Profiler Express, 33P-ATP radiometric; assay type: biochemical; settings: enzymatic; ATP 10 μM, casein substrate
T1 construct: purchased Reaction Biology Corp
T1 sequence (P53350 whole entry): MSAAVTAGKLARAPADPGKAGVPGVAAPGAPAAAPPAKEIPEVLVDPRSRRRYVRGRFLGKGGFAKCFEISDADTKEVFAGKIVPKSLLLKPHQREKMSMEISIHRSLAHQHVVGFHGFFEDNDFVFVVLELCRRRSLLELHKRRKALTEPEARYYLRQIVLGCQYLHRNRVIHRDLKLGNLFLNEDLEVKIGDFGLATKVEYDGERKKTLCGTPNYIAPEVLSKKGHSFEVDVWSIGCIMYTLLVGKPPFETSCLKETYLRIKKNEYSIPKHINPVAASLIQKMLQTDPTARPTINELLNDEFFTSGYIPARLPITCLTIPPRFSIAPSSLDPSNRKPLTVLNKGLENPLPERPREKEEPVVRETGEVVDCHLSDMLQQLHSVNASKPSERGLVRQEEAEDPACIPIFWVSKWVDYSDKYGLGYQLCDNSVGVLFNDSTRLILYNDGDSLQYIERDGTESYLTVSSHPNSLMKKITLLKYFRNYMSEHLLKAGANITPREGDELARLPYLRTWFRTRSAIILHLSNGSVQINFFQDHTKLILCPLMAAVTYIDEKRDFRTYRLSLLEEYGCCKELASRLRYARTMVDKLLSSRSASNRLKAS

PLK1 [1] = molecular target: T2, PLK1 (Homo sapiens, UniProt P53350); test: Kinase panel screen (Kinase HotSpot), single dose 10 µM: PLK1; assay type: biochemical; settings: duplicate, read-out: inhibitory activity against PLK1
T2 construct: purchased Reaction Biology Corp
T2 sequence (P53350 whole entry): as above
Protocol: (§1) Assay protocol: In a final reaction volume of 25 μL, substrate[Casein], 1 μM, ATP 10 μM, PLK1(h) (5–10 mU) is incubated with 25 mM Tris pH 7.5, 0.02 mM EGTA, 0.66 mg/mL myelin basic protein, 10 mM Mg acetate, and [^33P-ATP] (specific activity approx. 500 cpm/pmol, concentration as required). The reaction is initiated by addition of the Mg-ATP mix. After incubation for 40 min at room temperature, the reaction is stopped by addition of 5 μL of a 3% phosphoric acid solution. […] The 30 selected protein kinases were ABL1, AKT1, ALK, Aurora A, AXL, AXL (R499C), BRAF (V599E), BTK, c-MER, c-MET, c-Src, CAMKK1, CDK1/cyclin A, EGFR, ERK1, FGFR3, FYN, IGF1R, JAK3, KDR/VEGFR2, LCK, LYN, MEK1, PKA, PLK1, PLK2, PLK3, PLK4/SAK, SYK, and TYRO3/SKY4.

PLK2 = molecular target: T3, PLK2 (Homo sapiens, UniProt Q9NYY3); test: Kinase panel screen (Kinase HotSpot), single dose 10 µM: PLK2; assay type: biochemical
T3 construct: purchased Reaction Biology Corp
T3 sequence (Q9NYY3 whole entry): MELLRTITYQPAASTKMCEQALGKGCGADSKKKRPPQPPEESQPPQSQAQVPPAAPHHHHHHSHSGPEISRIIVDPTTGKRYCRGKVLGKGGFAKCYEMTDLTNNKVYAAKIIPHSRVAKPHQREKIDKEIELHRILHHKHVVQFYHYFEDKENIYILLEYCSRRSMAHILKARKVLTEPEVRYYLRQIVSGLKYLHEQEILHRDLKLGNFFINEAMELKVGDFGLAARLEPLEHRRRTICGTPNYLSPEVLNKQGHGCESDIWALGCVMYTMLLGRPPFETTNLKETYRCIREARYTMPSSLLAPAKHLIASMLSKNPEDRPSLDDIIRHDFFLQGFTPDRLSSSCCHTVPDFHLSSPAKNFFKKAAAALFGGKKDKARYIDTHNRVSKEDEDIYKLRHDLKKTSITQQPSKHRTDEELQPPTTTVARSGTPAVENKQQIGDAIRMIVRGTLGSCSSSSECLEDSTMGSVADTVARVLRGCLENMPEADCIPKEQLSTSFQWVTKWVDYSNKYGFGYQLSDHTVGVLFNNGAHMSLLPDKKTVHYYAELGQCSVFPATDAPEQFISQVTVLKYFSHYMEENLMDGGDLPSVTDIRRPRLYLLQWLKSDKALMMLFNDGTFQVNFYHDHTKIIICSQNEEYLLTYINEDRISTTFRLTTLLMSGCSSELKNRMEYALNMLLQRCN
Protocol: as §1

PLK3 = molecular target: T4, PLK3 (Homo sapiens, UniProt Q9H4B4); test: Kinase panel screen (Kinase HotSpot), single dose 10 µM: PLK3; assay type: biochemical
T4 construct: purchased Reaction Biology Corp
T4 sequence (Q9H4B4 whole entry): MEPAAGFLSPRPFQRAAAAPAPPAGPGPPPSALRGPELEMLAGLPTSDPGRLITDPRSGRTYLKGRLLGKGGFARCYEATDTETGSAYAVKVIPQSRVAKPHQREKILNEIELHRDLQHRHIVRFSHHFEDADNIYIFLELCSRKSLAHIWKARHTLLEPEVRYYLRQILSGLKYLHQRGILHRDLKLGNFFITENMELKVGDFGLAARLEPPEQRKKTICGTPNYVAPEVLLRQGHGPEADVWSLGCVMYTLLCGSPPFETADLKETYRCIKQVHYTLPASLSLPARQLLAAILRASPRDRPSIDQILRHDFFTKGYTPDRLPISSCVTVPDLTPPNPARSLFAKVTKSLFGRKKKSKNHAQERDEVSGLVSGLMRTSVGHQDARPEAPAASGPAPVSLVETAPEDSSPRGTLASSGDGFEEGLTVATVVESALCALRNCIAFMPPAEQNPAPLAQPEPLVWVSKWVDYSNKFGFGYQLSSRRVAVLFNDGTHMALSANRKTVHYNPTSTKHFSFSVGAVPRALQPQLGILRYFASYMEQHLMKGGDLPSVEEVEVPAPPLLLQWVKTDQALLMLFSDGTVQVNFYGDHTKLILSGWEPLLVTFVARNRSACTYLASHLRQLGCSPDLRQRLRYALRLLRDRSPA
Protocol: as §1

other protein kinases = test: Kinase panel screen (Kinase HotSpot), single dose 10 µM: other kinases of the 30-kinase panel; assay type: biochemical
Protocol: as §1

PLK1 [2] = molecular target: T2, PLK1; set-up: method as in ref 18 (a number printed in a supplementary file, which may have a reference list of its own: not looked up in the article's list); settings: Table S1, Plk1, cited from earlier work; for Activity pIC50: pIC50 = −log IC50
PLK1 [3] = molecular target: T2, PLK1; settings: in words; cited from earlier work
PLK1 [4] = molecular target: T2, PLK1; set-up: method as in ref 17 (a number printed in a supplementary file, which may have a reference list of its own: not looked up in the article's list); settings: Table S2, Plk1, cited from earlier work

NC(=O)c1nn(-c2ccnc(NC3CCOCC3)c2)cc1OCc1ccccc1 [Compound 8a]
IC50 (PLK1(h)): > 10000 nM

NC(=O)c1nn(-c2ccnc(NC3CCNCC3)c2)cc1OCc1ccccc1 [Compound 9a]
IC50 (PLK1(h)): > 10000 nM

NC(=O)c1nn(-c2ccnc(N[C@H]3CCNC3)c2)cc1OCc1ccccc1 [Compound 10a]
IC50 (PLK1(h)): > 10000 nM

NC(=O)c1nn(-c2ccnc(Nc3ccccc3)c2)cc1OCc1ccccc1 [Compound 13a]
IC50 (PLK1(h)): 9890 nM

NC(=O)c1nn(-c2ccnc(Nc3ccccc3)c2)cc1OCc1ccccc1C(F)(F)F [Compound 13b]
IC50 (PLK1(h)): 847 nM

COc1ccccc1Nc1cc(-n2cc(OCc3ccccc3)c(C(N)=O)n2)ccn1 [Compound 14a]
IC50 (PLK1(h)): 1020 nM

COc1ccccc1Nc1cc(-n2cc(OCc3ccccc3C(F)(F)F)c(C(N)=O)n2)ccn1 [Compound 14b]
IC50 (PLK1(h)): 1310 nM

NC(=O)c1nn(-c2ccnc(Nc3ccccc3)c2)cc1OCc1ccc(CO)cc1Cl [Compound 15, 4-((2-chloro-4-(hydroxymethyl)benzyl)oxy)-1-(2-(phenylamino)pyridin-4-yl)-1H-pyrazole-3-carboxamide]
IC50 (PLK1(h)): 219 nM
inhibition at 10 µM (PLK1 [1]): 97%
activity against PLK2 (PLK2): no significant activity
activity against PLK3 (PLK3): no significant activity
activity against other protein kinases (other protein kinases): no significant activity
IC50 (PLK1 [2]): 28 nM
Activity pIC50 (PLK1 [2]): 7.5528

COc1ccccc1Nc1cc(-n2cc(OCc3ccc(CO)cc3Cl)c(C(N)=O)n2)ccn1 [Compound 17, 4-((2-chloro-4-(hydroxymethyl)benzyl)oxy)-1-(2-((2-methoxyphenyl)amino)pyridin-4-yl)-1H-pyrazole-3-carboxamide]
IC50 (PLK1(h)): 312 nM
IC50 (PLK1 [2]): 25 nM
Activity pIC50 (PLK1 [2]): 7.6021

CN1CCN(c2ccc(C(=O)Nc3n[nH]c4c3CN(C(=O)Cc3cccs3)C4)cc2)CC1 [PHA-680626]
PLK1 IC50s (PLK1 [3]): low nanomolar

CCOC(=O)c1nn(-c2ccnc(F)c2)cc1O [compound 3]
IC50 (PLK1 [2]): 430 nM
Activity pIC50 (PLK1 [2]): 6.3665

O=Cc1n[nH]c2c1CCc1cnc(Nc3ccccc3)nc1-2 [compound 34]
IC50 (PLK1 [4]): 248 nM
Activity pIC50 (PLK1 [4]; pIC50 = −log IC50): 6.6055
